Assay results reported in US20260242419A1, “A CYCLIC PEPTIDE FOR TRAPPING INTERLEUKIN-1 BETA” (Merck Sharp & Dohme LLC, priority 2023, published 2026).
Non-standard residues stand in square brackets, D forms with d. Residues, ends and D or L forms follow the SMILES beside them. dPro(4R-(4-pyridylmethyl)) = O=C(O)[C@H]1C[C@@H](Cc2ccncc2)CN1; Trp(βS-Me,4-F) = C[C@@H](c1c[nH]c2cccc(F)c12)[C@H](N)C(=O)O; Bip(4'-CONH2) = NC(=O)c1ccc(-c2ccc(C[C@H](N)C(=O)O)cc2)cc1; Bip(4'-COOH) = N[C@@H](Cc1ccc(-c2ccc(C(=O)O)cc2)cc1)C(=O)O; Ala(1-bicyclo(1.1.1)pentyl) = N[C@@H](CC12CC(C1)C2)C(=O)O; dPro(3S-(4-F-Bn)) = O=C(O)[C@@H]1NCC[C@@H]1Cc1ccc(F)cc1; Ala(pyrimidin-5-yl) = N[C@@H](Cc1cncnc1)C(=O)O; Phe(4-COOH) = N[C@@H](Cc1ccc(C(=O)O)cc1)C(=O)O; Pro(cis-4-F) = O=C(O)[C@@H]1C[C@H](F)CN1; Ala(4-THP) = N[C@@H](CC1CCOCC1)C(=O)O; cisHyp = O=C(O)[C@@H]1C[C@H](O)CN1; 4Pal = N[C@@H](Cc1ccncc1)C(=O)O; αMeD = C[C@](N)(CC(=O)O)C(=O)O; d(αMeS) = C[C@@](N)(CO)C(=O)O; Dab = NCC[C@H](N)C(=O)O; Aib = CC(C)(N)C(=O)O; Sar = CNCC(=O)O

These molecules were tested against T1, IL-1β (Homo sapiens, UniProt P01584) (assay: IL-6 assay in MRC5 cells: inhibition of IL-1β induced IL-6 secretion (AlphaLISA)). Conditions: inhibition of IL-1β induced IL-6 secretion in MRC5 cells; read-out: MRC5 IC50.
T1 construct: purchased BioLegend 579404
Type: cell-based
Outline: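 Compound was pre-incubated 1 h at ambient temperature with recombinant human IL-1β at 2λ EC80 before adding human lung fibroblast MRC5 cells (3000/well) in EMEM with 0.025% BSA. After overnight culture at 37 °C, 5% CO2, secreted IL-6 in conditioned medium was measured by AlphaLISA; IC50 from 4-parameter logistic fits.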

T1 sequence (P01584 117-269): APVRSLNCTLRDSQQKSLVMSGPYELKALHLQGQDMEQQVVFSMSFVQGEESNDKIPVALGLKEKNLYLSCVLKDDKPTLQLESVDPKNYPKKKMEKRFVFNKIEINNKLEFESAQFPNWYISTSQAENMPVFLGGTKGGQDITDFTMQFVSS

IC50 [nM]	Structure (SMILES)
0.044	C[C@@H](c1c[nH]c2cccc(F)c12)[C@@H]1NC(=O)[C@@H]2C[C@H](O)CN2C(=O)CNC(=O)[C@H](Cc2ccc(C(=O)O)cc2)NC(=O)[C@H](Cc2ccncc2)NC(=O)[C@H](Cc2ccc(-c3ccc(C(=O)O)cc3)cc2)NC(=O)[C@H]2C[C@@H](Cc3ccncc3)CN2C(=O)CN(C)C(=O)[C@H](CCN)NC(=O)[C@H](CCC(N)=O)NC(=O)[C@H](CC2CCOCC2)NC(=O)[C@@](C)(CO)NC(=O)[C@H](Cc2c[nH]c3ccccc23)NC(=O)[C@H](CO)NC(=O)C(C)(C)NC1=O [Example 207] (cyclo([Bip(4'-COOH)][4Pal][Phe(4-COOH)]G[cisHyp][Trp(βS-Me,4-F)][Aib]SW[d(αMeS)][Ala(4-THP)]Q[Dab][Sar][dPro(4R-(4-pyridylmethyl))]))
0.015	C[C@@H](c1c[nH]c2cccc(F)c12)[C@@H]1NC(=O)[C@@H]2C[C@H](F)CN2C(=O)CNC(=O)[C@H](Cc2ccc(C(=O)O)cc2)NC(=O)[C@H](Cc2ccncc2)NC(=O)[C@H](Cc2ccc(-c3ccc(C(=O)O)cc3)cc2)NC(=O)[C@H]2C[C@@H](Cc3ccncc3)CN2C(=O)CN(C)C(=O)[C@H](CCN)NC(=O)[C@H](CCC(N)=O)NC(=O)[C@H](CC2CCOCC2)NC(=O)[C@](C)(CC(=O)O)NC(=O)[C@H](Cc2c[nH]c3ccccc23)NC(=O)[C@H](CO)NC(=O)C(C)(C)NC1=O [Example 208] (cyclo([Bip(4'-COOH)][4Pal][Phe(4-COOH)]G[Pro(cis-4-F)][Trp(βS-Me,4-F)][Aib]SW[αMeD][Ala(4-THP)]Q[Dab][Sar][dPro(4R-(4-pyridylmethyl))]))
0.034	C[C@@H](c1c[nH]c2cccc(F)c12)[C@@H]1NC(=O)[C@@H]2C[C@H](O)CN2C(=O)CNC(=O)[C@H](Cc2ccc(C(=O)O)cc2)NC(=O)[C@H](Cc2ccncc2)NC(=O)[C@H](Cc2ccc(-c3ccc(C(=O)O)cc3)cc2)NC(=O)[C@H]2C[C@@H](Cc3ccncc3)CN2C(=O)CN(C)C(=O)[C@H](CCN)NC(=O)[C@H](CCC(N)=O)NC(=O)[C@H](Cc2cncnc2)NC(=O)[C@](C)(CC(=O)O)NC(=O)[C@H](Cc2c[nH]c3ccccc23)NC(=O)[C@H](CO)NC(=O)C(C)(C)NC1=O [Example 209] (cyclo([Bip(4'-COOH)][4Pal][Phe(4-COOH)]G[cisHyp][Trp(βS-Me,4-F)][Aib]SW[αMeD][Ala(pyrimidin-5-yl)]Q[Dab][Sar][dPro(4R-(4-pyridylmethyl))]))
0.029	C[C@@H](c1c[nH]c2cccc(F)c12)[C@@H]1NC(=O)[C@@H]2C[C@H](O)CN2C(=O)CNC(=O)[C@H](Cc2ccc(C(=O)O)cc2)NC(=O)[C@H](Cc2ccncc2)NC(=O)[C@H](Cc2ccc(-c3ccc(C(=O)O)cc3)cc2)NC(=O)[C@H]2C[C@@H](Cc3ccncc3)CN2C(=O)CN(C)C(=O)[C@H](CCN)NC(=O)[C@H](CCC(N)=O)NC(=O)[C@H](CC2CCOCC2)NC(=O)[C@](C)(CC(=O)O)NC(=O)[C@H](Cc2c[nH]c3ccccc23)NC(=O)[C@H](CO)NC(=O)C(C)(C)NC1=O [Example 210] (cyclo([Bip(4'-COOH)][4Pal][Phe(4-COOH)]G[cisHyp][Trp(βS-Me,4-F)][Aib]SW[αMeD][Ala(4-THP)]Q[Dab][Sar][dPro(4R-(4-pyridylmethyl))]))
0.019	C[C@@H](c1c[nH]c2cccc(F)c12)[C@@H]1NC(=O)[C@@H]2C[C@H](F)CN2C(=O)CNC(=O)[C@H](Cc2ccc(C(=O)O)cc2)NC(=O)[C@H](Cc2ccncc2)NC(=O)[C@H](Cc2ccc(-c3ccc(C(=O)O)cc3)cc2)NC(=O)[C@H]2C[C@@H](Cc3ccncc3)CN2C(=O)CNC(=O)[C@H](CCN)NC(=O)[C@H](CCC(N)=O)NC(=O)[C@H](CC2CCOCC2)NC(=O)C(C)(C)NC(=O)[C@H](Cc2c[nH]c3ccccc23)NC(=O)[C@H](CO)NC(=O)C(C)(C)NC1=O [Example 211] (cyclo([Bip(4'-COOH)][4Pal][Phe(4-COOH)]G[Pro(cis-4-F)][Trp(βS-Me,4-F)][Aib]SW[Aib][Ala(4-THP)]Q[Dab]G[dPro(4R-(4-pyridylmethyl))]))
0.029	C[C@@H](c1c[nH]c2cccc(F)c12)[C@@H]1NC(=O)[C@@H]2C[C@H](O)CN2C(=O)CNC(=O)[C@H](Cc2ccc(C(=O)O)cc2)NC(=O)[C@H](Cc2ccncc2)NC(=O)[C@H](Cc2ccc(-c3ccc(C(=O)O)cc3)cc2)NC(=O)[C@H]2C[C@@H](Cc3ccncc3)CN2C(=O)CNC(=O)[C@H](CCN)NC(=O)[C@H](CCC(N)=O)NC(=O)[C@H](CC2CCOCC2)NC(=O)C(C)(C)NC(=O)[C@H](Cc2c[nH]c3ccccc23)NC(=O)[C@H](CO)NC(=O)C(C)(C)NC1=O [Example 212] (cyclo([Bip(4'-COOH)][4Pal][Phe(4-COOH)]G[cisHyp][Trp(βS-Me,4-F)][Aib]SW[Aib][Ala(4-THP)]Q[Dab]G[dPro(4R-(4-pyridylmethyl))]))
0.021	C[C@@H](c1c[nH]c2cccc(F)c12)[C@@H]1NC(=O)[C@@H]2C[C@H](O)CN2C(=O)CNC(=O)[C@H](Cc2ccc(C(=O)O)cc2)NC(=O)[C@H](Cc2ccncc2)NC(=O)[C@H](Cc2ccc(-c3ccc(C(=O)O)cc3)cc2)NC(=O)[C@H]2C[C@@H](Cc3ccncc3)CN2C(=O)CNC(=O)[C@H](CCN)NC(=O)[C@H](CCC(N)=O)NC(=O)[C@H](CC2CCOCC2)NC(=O)[C@@](C)(CO)NC(=O)[C@H](Cc2c[nH]c3ccccc23)NC(=O)[C@H](CO)NC(=O)C(C)(C)NC1=O [Example 213] (cyclo([Bip(4'-COOH)][4Pal][Phe(4-COOH)]G[cisHyp][Trp(βS-Me,4-F)][Aib]SW[d(αMeS)][Ala(4-THP)]Q[Dab]G[dPro(4R-(4-pyridylmethyl))]))
0.01	C[C@@H](c1c[nH]c2cccc(F)c12)[C@@H]1NC(=O)[C@@H]2C[C@H](F)CN2C(=O)CNC(=O)[C@H](Cc2ccc(C(=O)O)cc2)NC(=O)[C@H](Cc2ccncc2)NC(=O)[C@H](Cc2ccc(-c3ccc(C(N)=O)cc3)cc2)NC(=O)[C@H]2C[C@@H](Cc3ccncc3)CN2C(=O)CNC(=O)[C@H](CCN)NC(=O)[C@H](CCC(N)=O)NC(=O)[C@H](CC2CCOCC2)NC(=O)[C@@](C)(CO)NC(=O)[C@H](Cc2c[nH]c3ccccc23)NC(=O)[C@H](CO)NC(=O)C(C)(C)NC1=O [Example 215] (cyclo([Bip(4'-CONH2)][4Pal][Phe(4-COOH)]G[Pro(cis-4-F)][Trp(βS-Me,4-F)][Aib]SW[d(αMeS)][Ala(4-THP)]Q[Dab]G[dPro(4R-(4-pyridylmethyl))]))
0.008	C[C@@H](c1c[nH]c2cccc(F)c12)[C@@H]1NC(=O)[C@@H]2C[C@H](F)CN2C(=O)CNC(=O)[C@H](Cc2ccc(C(=O)O)cc2)NC(=O)[C@H](CC23CC(C2)C3)NC(=O)[C@H](Cc2ccc(-c3ccc(C(N)=O)cc3)cc2)NC(=O)[C@H]2[C@@H](Cc3ccc(F)cc3)CCN2C(=O)CNC(=O)[C@H](CCN)NC(=O)[C@H](CCC(N)=O)NC(=O)[C@H](CC2CCOCC2)NC(=O)[C@@](C)(CO)NC(=O)[C@H](Cc2c[nH]c3ccccc23)NC(=O)[C@H](CO)NC(=O)C(C)(C)NC1=O [Example 216] (cyclo([Bip(4'-CONH2)][Ala(1-bicyclo(1.1.1)pentyl)][Phe(4-COOH)]G[Pro(cis-4-F)][Trp(βS-Me,4-F)][Aib]SW[d(αMeS)][Ala(4-THP)]Q[Dab]G[dPro(3S-(4-F-Bn))]))
